Results published in the OPERA property sets (Mansouri et al. 2018).
In brackets after ≈: the same amount, converted by molar mass.

Q: With `C(=C\c1ccccc1)/c1ccccc1` as the compound, how does the boiling point read?
A: Its boiling point is 307 °C.

Q: What about the log10 Koa of the same compound?
A: Its log10 Koa is 7.48.

Q: And the log10 vapour pressure (mmHg)?
A: Its log10 vapour pressure (mmHg) is -2.61.

Q: With `O=C(O)c1cc([N+](=O)[O-])ccc1O` as the compound, how does the melting point read?
A: Its melting point is 230 °C.

Q: For `CC(=O)NCCO`, which melting point is on record?
A: Its melting point is 16 °C.

Q: Which melting point does the source give for `O=C(OC[C@H]1O[C@@H](Oc2ccccc2CO)[C@H](O)[C@@H](O)[C@@H]1O)c1ccccc1` here?
A: Its melting point is 180 °C.

Q: With `CC(Cl)C(Cl)Cl` (stereo unspecified) as the compound, how does the boiling point read?
A: Its boiling point is 132 °C.

Q: What about the log10 vapour pressure (mmHg) of the same compound?
A: The log10 vapour pressure (mmHg) was 0.491.

Q: Which log10 vapour pressure (mmHg) does the source give for `Fc1ccc(Oc2ccnc3cc(Cl)cc(Cl)c23)cc1` here?
A: The log10 vapour pressure (mmHg) was -6.82.

Q: And the melting point?
A: Its melting point is 107 °C.

Q: Which results are given for `CCc1ccc2cc3ccccc3cc2c1`?
A: log10 vapour pressure (mmHg): -5.28; melting point: 152 °C

Q: For `O=[N+]([O-])c1cc(Cl)c(O)c(Cl)c1`, which melting point is on record?
A: Its melting point is 127 °C.

Q: Which boiling point does the source give for `C#CC#C` here?
A: The boiling point was 10.3 °C.

Q: And the log10 vapour pressure (mmHg)?
A: Its log10 vapour pressure (mmHg) is 3.12.

Q: What about the melting point of the same compound?
A: The melting point was -36.4 °C.

Q: Which melting point does the source give for `C/C=C1/C[C@@H](C)[C@](O)(CO)C(=O)OCC2=CCN3CC[C@@H](OC1=O)[C@@H]23` here?
A: Its melting point is 212 °C.

Q: What does the source list for `O=C(Cl)c1ccc(Cl)c(Cl)c1`?
A: boiling point: 242 °C; melting point: 25 °C

Q: With `CCCS(=O)(=O)CCC` as the compound, how does the boiling point read?
A: Its boiling point is 270 °C.

Q: And the log10 vapour pressure (mmHg)?
A: The log10 vapour pressure (mmHg) was -2.39.

Q: And the melting point?
A: Its melting point is 29.5 °C.

Q: For `CCCCOC(=O)Nc1ccccc1`, which log10 Koc (L/kg) is on record?
A: Its log10 Koc (L/kg) is 2.26.

Q: Which boiling point does the source give for `Cc1cc(C)cc(Br)c1` here?
A: Its boiling point is 204 °C.

Q: Which boiling point does the source give for `O=[N+]([O-])c1cc(F)ccc1F` here?
A: Its boiling point is 206 °C.

Q: And the melting point?
A: Its melting point is -11.7 °C.

Q: Which boiling point does the source give for `CCN(CC)CCCO` here?
A: Its boiling point is 190 °C.

Q: For `CCCCCCCCCCCCOC(C)=O`, which boiling point is on record?
A: The boiling point was 265 °C.

Q: And the melting point?
A: The melting point was 1.3 °C.

Q: Which boiling point does the source give for `CCCCOC(=O)OCCCC` here?
A: Its boiling point is 170 °C.

Q: For `COc1ccc(COC(=O)Cc2ccccc2)cc1`, which boiling point is on record?
A: Its boiling point is 370 °C.

Q: Which ready biodegradability does the source give for `C=C(C)C(=O)OCC(CC)(COC(=O)C(=C)C)COC(=O)C(=C)C` here?
A: Its ready biodegradability is “readily biodegradable”.

Q: Which melting point does the source give for `Nn1cnnc1` here?
A: The melting point was 82.5 °C.

Q: With `CCN(CC)C(=S)[S-].[Na+]` as the compound, how does the melting point read?
A: The melting point was 98 °C.

Q: What does the source list for `CCCC(O)C(CC)CO` (stereo unspecified)?
A: boiling point: 244 °C; log10 vapour pressure (mmHg): -2.52; melting point: -40 °C

Q: Which boiling point does the source give for `CC(Br)C(=O)c1ccccc1` (stereo unspecified) here?
A: Its boiling point is 248 °C.

Q: For `CCn1cc(C(=O)O)c(=O)c2cnc(N3CCCC3)nc21`, which melting point is on record?
A: Its melting point is 315 °C.

Q: Which melting point does the source give for `c1ccc2sc(SSN3CCOCC3)nc2c1` here?
A: The melting point was 135 °C.

Q: With `Clc1ccc(Cl)c2c(Cl)cccc12` as the compound, how does the log10 Koa read?
A: Its log10 Koa is 7.56.

Q: What does the source list for `O=C(c1ccccc1)c1cccs1`?
A: boiling point: 300 °C; melting point: 56.5 °C

Q: Which boiling point does the source give for `FC(F)(F)C(Cl)=C(Cl)C(F)(F)F` here?
A: Its boiling point is 68.5 °C.

Q: And the melting point?
A: The melting point was -67.3 °C.

Q: Which boiling point does the source give for `CN1CSCSC1` here?
A: Its boiling point is 185 °C.

Q: And the melting point?
A: Its melting point is 65 °C.

Q: With `CCC1COC(Cn2cncn2)(c2ccc(Cl)cc2Cl)O1` (stereo unspecified) as the compound, how does the melting point read?
A: The melting point was 84 °C.

Q: Which melting point does the source give for `CCCCCCCCCCCCCCCCC(=O)OC` here?
A: The melting point was 30 °C.

Q: With `CC(C)(C#N)O[C@@H]1O[C@H](CO)[C@@H](O)[C@H](O)[C@H]1O` as the compound, how does the melting point read?
A: The melting point was 145 °C.

Q: With `CCOC(=O)C(C(=O)OCC)=C(C(=O)OCC)C(=O)OCC` as the compound, how does the melting point read?
A: The melting point was 58 °C.

Q: With `CCOP(=S)(OCC)SC1OCCOC1SP(=S)(OCC)OCC` (stereo unspecified) as the compound, how does the melting point read?
A: The melting point was -20 °C.

Q: With `CCN(CC)CCNC(=O)c1cc(Cl)c(N)cc1OC` as the compound, how does the melting point read?
A: The melting point was 147 °C.

Q: Which solubility does the source give for `CCOP(=O)(OCC)SCS(=O)CC` (stereo unspecified) here?
A: The solubility was 30.7 mM (≈ 8000 µg/mL).

Q: With `CCCCCCCCCCCCO` as the compound, how does the boiling point read?
A: The boiling point was 259 °C.

Q: What about the log10 Henry constant (atm·m³/mol) of the same compound?
A: The log10 Henry constant (atm·m³/mol) was -4.65.

Q: What about the log10 Koc (L/kg) of the same compound?
A: Its log10 Koc (L/kg) is 3.52.

Q: What about the log10 vapour pressure (mmHg) of the same compound?
A: The log10 vapour pressure (mmHg) was -3.07.

Q: And the melting point?
A: Its melting point is 24 °C.

Q: What about the ready biodegradability of the same compound?
A: The ready biodegradability was “readily biodegradable”.

Q: Which melting point does the source give for `Brc1c(Br)c(Br)c(Br)c(Br)c1Br` here?
A: The melting point was 326 °C.

Q: And the ready biodegradability?
A: Its ready biodegradability is “not readily biodegradable”.

Q: With `Oc1cc(O)c(Cl)cc1Cl` as the compound, how does the boiling point read?
A: Its boiling point is 254 °C.

Q: What about the melting point of the same compound?
A: Its melting point is 113 °C.

Q: Which boiling point does the source give for `CC=CCc1ccccc1` here?
A: The boiling point was 176 °C.

Q: Which boiling point does the source give for `CCC(=O)Oc1ccccc1` here?
A: Its boiling point is 211 °C.

Q: And the melting point?
A: The melting point was 20 °C.

Q: With `CCC#CCCCCC(=O)O` as the compound, how does the melting point read?
A: Its melting point is 14 °C.

Q: For `O=Cc1cccc(F)c1`, which boiling point is on record?
A: Its boiling point is 173 °C.

Q: Which melting point does the source give for `CCN(CC)CCOC(=O)c1ccc(N)cc1` here?
A: Its melting point is 61 °C.

Q: With `Clc1ccc2ccccc2c1Cl` as the compound, how does the boiling point read?
A: Its boiling point is 296 °C.

Q: And the log10 Koa?
A: Its log10 Koa is 6.89.

Q: And the log10 vapour pressure (mmHg)?
A: The log10 vapour pressure (mmHg) was -2.7.

Q: And the melting point?
A: The melting point was 36 °C.

Q: With `COc1ccc(CCC(C)=O)cc1` as the compound, how does the melting point read?
A: Its melting point is 8 °C.

Q: With `CC(COc1ccc(C(C)(C)C)cc1)OS(=O)OCCCl` (stereo unspecified) as the compound, how does the melting point read?
A: Its melting point is -31.7 °C.

Q: For `CCC(C)CCc1ccccc1` (stereo unspecified), which boiling point is on record?
A: Its boiling point is 220 °C.

Q: Which boiling point does the source give for `FC1(F)C(Cl)=C(Cl)C(F)(F)C1(F)F` here?
A: The boiling point was 90.7 °C.

Q: What about the melting point of the same compound?
A: The melting point was -106 °C.

Q: For `CCC(O)CCC(F)(F)F` (stereo unspecified), which boiling point is on record?
A: The boiling point was 141 °C.

Q: With `OB(c1ccccc1)c1ccccc1` as the compound, how does the melting point read?
A: Its melting point is 57.5 °C.

Q: With `COc1cc(Cl)c(Cl)c(Cl)c1Cl` as the compound, how does the melting point read?
A: The melting point was 84 °C.

Q: Which boiling point does the source give for `CC(Cl)[N+](=O)[O-]` (stereo unspecified) here?
A: The boiling point was 124 °C.

Q: Which results are given for `CCCCOC(=O)c1ccccc1`?
A: boiling point: 250 °C; log10 Koc (L/kg): 2.1; log10 vapour pressure (mmHg): -2; melting point: -22.4 °C

Q: Which melting point does the source give for `O=C(O)c1cc(Cl)c(Cl)cc1Cl` here?
A: Its melting point is 166 °C.

Q: What does the source list for `C1CCCCCC1`?
A: boiling point: 118 °C; log10 vapour pressure (mmHg): 1.33; melting point: -8 °C

Q: What does the source list for `O=Cc1ccccc1F`?
A: boiling point: 175 °C; melting point: -44.5 °C

Q: With `CCNc1ccccc1C` as the compound, how does the boiling point read?
A: The boiling point was 216 °C.

Q: Which boiling point does the source give for `CCC(O)C(Cl)(Cl)Cl` (stereo unspecified) here?
A: The boiling point was 171 °C.

Q: With `C[C@@H]1CCCCN1` as the compound, how does the boiling point read?
A: The boiling point was 120 °C.

Q: What about the log10 vapour pressure (mmHg) of the same compound?
A: The log10 vapour pressure (mmHg) was 1.29.

Q: With `ClCC=Cc1ccccc1` as the compound, how does the melting point read?
A: The melting point was -19 °C.

Q: With `CCCCC(CCCC)CCCC` as the compound, how does the boiling point read?
A: The boiling point was 218 °C.

Q: For `COC(=O)Nc1nc2cc(C(=O)c3ccccc3)ccc2[nH]1`, which melting point is on record?
A: The melting point was 288 °C.

Q: Which log10 vapour pressure (mmHg) does the source give for `COc1ccc2c(c1)C(=O)c1ccccc1C2=O` here?
A: The log10 vapour pressure (mmHg) was -10.2.
